In PubChem BioAssay AID2060912 (Molecular Pharmacology Branch, DTP, NCI, 2025):

Test system: HUVEC/MSC spheroids viability
Experiment: Human HUVEC/MSC cell line growth inhibition [KRAS2];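 for viability, T/C: percent of DMSO vehicle control luminescence so 100% = untreated viability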
Conditions: for IC50: curve of first compound; for viability, T/C: stronger effect = lower value
In short: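 Spheroids of pooled-donor HUVEC and hMSC (passage ≤5) without tumour cells were treated with KRAS-pathway inhibitors alone and combined with targeted agents. Top concentration was at or near clinical Cmax, or 10 microM when Cmax was unknown, descending in half-log steps.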

[1] = second compound 0.0316 µM, first compound 0.0316 µM
[2] = second compound 0.0316 µM, first compound 0.1 µM
[3] = second compound 0.0316 µM, first compound 0.316 µM
[4] = second compound 0.0316 µM, first compound 1 µM
[5] = second compound 0.0316 µM, first compound 3.16 µM
[6] = second compound 0.0316 µM, first compound 10 µM
[7] = second compound 0.1 µM, first compound 0.0316 µM
[8] = second compound 0.1 µM, first compound 0.1 µM
[9] = second compound 0.1 µM, first compound 0.316 µM
[10] = second compound 0.1 µM, first compound 1 µM
[11] = second compound 0.1 µM, first compound 3.16 µM
[12] = second compound 0.1 µM, first compound 10 µM
[13] = second compound 0.316 µM, first compound 0.0316 µM
[14] = second compound 0.316 µM, first compound 0.1 µM
[15] = second compound 0.316 µM, first compound 0.316 µM
[16] = second compound 0.316 µM, first compound 1 µM
[17] = second compound 0.316 µM, first compound 3.16 µM
[18] = second compound 0.316 µM, first compound 10 µM
[19] = second compound 1 µM, first compound 0.0316 µM
[20] = second compound 1 µM, first compound 0.1 µM
[21] = second compound 1 µM, first compound 0.316 µM
[22] = second compound 1 µM, first compound 1 µM
[23] = second compound 1 µM, first compound 3.16 µM
[24] = second compound 1 µM, first compound 10 µM
[25] = second compound 3.16 µM, first compound 0.0316 µM
[26] = second compound 3.16 µM, first compound 0.1 µM
[27] = second compound 3.16 µM, first compound 0.316 µM
[28] = second compound 3.16 µM, first compound 1 µM
[29] = second compound 3.16 µM, first compound 3.16 µM
[30] = second compound 3.16 µM, first compound 10 µM
[31] = second compound 10 µM, first compound 0.0316 µM
[32] = second compound 10 µM, first compound 0.1 µM
[33] = second compound 10 µM, first compound 0.316 µM
[34] = second compound 10 µM, first compound 1 µM
[35] = second compound 10 µM, first compound 3.16 µM
[36] = second compound 10 µM, first compound 10 µM

Structure (SMILES): CC1OCC2(CCN(c3cnc(Sc4ccnc(N)c4Cl)c(N)n3)CC2)C1N (centres undefined) + C=CC(=O)N1CCN(c2nc(=O)n(-c3c(C)ccnc3C(C)C)c3nc(-c4c(O)cccc4F)c(F)cc23)C(C)C1
- IC50 (second compound 0.0316 µM): > 10000 nM
- IC50 (second compound 0.1 µM): > 10000 nM
- IC50 (second compound 0.316 µM): > 10000 nM
- IC50 (second compound 1 µM): > 10000 nM
- IC50 (second compound 3.16 µM): > 10000 nM
- IC50 (second compound 10 µM): > 10000 nM
- viability, T/C [1]: 118%
- viability, T/C [2]: 101%
- viability, T/C [3]: 105%
- viability, T/C [4]: 80.5%
- viability, T/C [5]: 70.1%
- viability, T/C [6]: 70.5%
- viability, T/C [7]: 110%
- viability, T/C [8]: 107%
- viability, T/C [9]: 97.2%
- viability, T/C [10]: 84.3%
- viability, T/C [11]: 72%
- viability, T/C [12]: 67.9%
- viability, T/C [13]: 96.8%
- viability, T/C [14]: 129%
- viability, T/C [15]: 92.1%
- viability, T/C [16]: 88%
- viability, T/C [17]: 81.8%
- viability, T/C [18]: 78.5%
- viability, T/C [19]: 101%
- viability, T/C [20]: 126%
- viability, T/C [21]: 105%
- viability, T/C [22]: 99.7%
- viability, T/C [23]: 89%
- viability, T/C [24]: 77.5%
- viability, T/C [25]: 116%
- viability, T/C [26]: 136%
- viability, T/C [27]: 111%
- viability, T/C [28]: 92.7%
- viability, T/C [29]: 109%
- viability, T/C [30]: 71.3%
- viability, T/C [31]: 104%
- viability, T/C [32]: 121%
- viability, T/C [33]: 120%
- viability, T/C [34]: 98.3%
- viability, T/C [35]: 95.5%
- viability, T/C [36]: 54.7%

Structure (SMILES): COC(=O)c1ccc2c(C(=Nc3ccc(N(C)C(=O)CN4CCN(C)CC4)cc3)c3ccccc3)c(O)[nH]c2c1 + CC1OCC2(CCN(c3cnc(Sc4ccnc(N)c4Cl)c(N)n3)CC2)C1N
- IC50 (second compound 0.0316 µM): 1550 nM
- IC50 (second compound 0.1 µM): 1180 nM
- IC50 (second compound 0.316 µM): 620 nM
- IC50 (second compound 1 µM): 623 nM
- IC50 (second compound 3.16 µM): 528 nM
- IC50 (second compound 10 µM): 353 nM
- viability, T/C [1]: 112%
- viability, T/C [2]: 111%
- viability, T/C [3]: 89.7%
- viability, T/C [4]: 52.6%
- viability, T/C [5]: 38.8%
- viability, T/C [6]: 2.26%
- viability, T/C [7]: 94.1%
- viability, T/C [8]: 106%
- viability, T/C [9]: 77%
- viability, T/C [10]: 47.8%
- viability, T/C [11]: 32%
- viability, T/C [12]: 0.33%
- viability, T/C [13]: 108%
- viability, T/C [14]: 82%
- viability, T/C [15]: 73.4%
- viability, T/C [16]: 34.9%
- viability, T/C [17]: 16.6%
- viability, T/C [18]: 1.89%
- viability, T/C [19]: 74.3%
- viability, T/C [20]: 72.8%
- viability, T/C [21]: 74.2%
- viability, T/C [22]: 33.4%
- viability, T/C [23]: 0.59%
- viability, T/C [24]: 0.29%
- viability, T/C [25]: 69.4%
- viability, T/C [26]: 73.3%
- viability, T/C [27]: 64.5%
- viability, T/C [28]: 30.9%
- viability, T/C [29]: 0.39%
- viability, T/C [30]: 0.29%
- viability, T/C [31]: 63.5%
- viability, T/C [32]: 61.1%
- viability, T/C [33]: 53.8%
- viability, T/C [34]: 14.7%
- viability, T/C [35]: 0.37%
- viability, T/C [36]: 0.38%
